# Experimental data: patent US9695119B2, “Methionine analogs and methods of using same” (Bioxiness Pharmaceuticals, Inc., priority 2008, dated 2017)
# Read-outs that look alike come from different tables or passages of the source.
# Key:
# [1] = test system: E. coli (DH5-α); experiment: MBC spot inoculation onto gridded agar plate (growth or no growth); type: cell-based; conditions: spot inoculation from well 12, 11 and 10
# Protocol: MBC was determined by plating 5 μL of each sample onto a gridded agar plate (see, for example, FIG. 1B). Plates were then incubated overnight at 37° C., and examined for growth or no growth. The concentration at which there was a complete absence of colony growth was determined to be the MBC. For FIGS. 1A and 1B, the 96-well plate format was used to culture E. coli (DH5-α) cells in M9 minimal media supplemented with glucose (M9) or same media supplemented with a range of concentrations of various analogs. Experiments were carried out in duplicate.
# [2] = test system: E. coli; experiment: Broad spectrum bacterial growth inhibition, 96-well plate, M9 media; type: cell-based; set-up: unit not given here
# Protocol: (§1) Table 2 and FIG. 2 summarizes a series of studies, which were performed to test eradication of bacterial growth using various species (representative strains of gram positive and gram negative microorganisms commonly associated with wound infection). A 96-well plate format was used to culture different bacteria in M9 minimal media supplemented with glucose (M9) or same media supplemented with a range of concentrations of various analogues (Methionine, I-AA and I-AB). Experiments were carried out in duplicate.
# [3] = test system: P. aeruginosa; experiment: as above; type: cell-based; set-up: unit not given here
# Protocol: as §1
# [4] = test system: B. subtillus; experiment: as above; type: cell-based; set-up: unit not given here
# Protocol: as §1
# [5] = test system: Ps. sturtzeri; experiment: as above; type: cell-based
# Protocol: as §1
# [6] = test system: S. aureus; experiment: as above; type: cell-based
# Protocol: as §1
# [7] = test system: S. epidermids; experiment: as above; type: cell-based
# Protocol: as §1
# [8] = test system: E. coli (DH5-α); experiment: Growth inhibition of E. coli by methionine analogs, 96-well plate, OD 550 nm over time; type: cell-based; conditions: for Absorbance: 12.5 mM, OD 550 nm
# From the text: Comparative Minimum Bactericidal Concentration (MBC) results provide estimates of the susceptibility of various test articles against test organisms. A modification of the […] (NCCL) Standardized Protocol “Methods for dilution antimicrobial susceptibility tests for bacteria that grow aerobically” was used in these studies. Sterile Phosphate Buffer Saline (PBS) at pH 7.0 (vehicle) was used as the diluent. Use of such diluent allows for the determination of the intrinsic activity of our test articles in the absence of any interfering molecules. Specifically, each test article was diluted using 2-fold serial dilution in 96-well plate to give a range of concentrations from approximately 50 mM to 0.05 mM in a final volume of 0.1 mL. Each dilution was inoculated with 5×10^5 CFU/mL test bacteria. The initial optical density as absorbance of each well was read at OD 550 nm using ThermoMax plate reader. […] At various time intervals post-treatment, OD reading at 550 nm was recorded at various time intervals. FIG. 1A and Table 1 show time dependent growth inhibition capability of analogs on E. coli at 12.5 mM. For FIGS. 1A and 1B, the 96-well plate format was used to culture E. coli (DH5-α) cells in M9 minimal media supplemented with glucose (M9) or same media supplemented with a range of concentrations of various analogs. Experiments were carried out in duplicate.
# [9] = test system: CV-1 (African Green Monkey Kidney Cells) cells; conditions: 60 min, pH 7
# Protocol: Preliminary studies of cytotoxicity were performed in a mammalian cell viability assay.
# CV-1 cells were propagated in DMEM plus 8% FBS according to supplier's recommendations. CV-1 cells were seeded at 1.5×10^4 cells per well in 96-well plates and incubated overnight at 37° C. On the day of testing, growth medium was aspirated from each well, and 20 μl fresh medium was added per well. Test articles were diluted from 50 mM to 0.05 mM by 2-fold serial dilution using PBS at pH 7.0 for each test article. After which 80 μl of each dilution was added to each well for a total volume of 100 μl per well. Following 60 minutes exposure at 37° C., test articles were aspirated and replaced with fresh 100 μl tissue culture media and incubated for 24 hours at 37° C. Next day cell culture media was removed and cell viability was determined by addition of WST-8 (Dojindo, Japan) reagent and the absorption at 450 nm read spectrophotometrically. Orange-red formazan, which is produced by live cells, is a direct measure of cell viability in this assay.
# Results are expressed as percentage of cells surviving the treatment as compared to PBS.
smiles,measurement,setting,value
"CSCC[C@H](NC(=O)CN)C(=O)NO.Cl [I-AB, (S)-2-(2-aminoacetamido)-N-hydroxy-4-(methylthio)butanamide hydrochloride]",Re-growth after spot inoculation on agar plate,[1],absence of re-growth
same,"Broad Spectrum Bacterial Growth Inhibition Data, E. coli","[2]; Conc. 0.0, well 4, M9 media",0.4
same,"Broad Spectrum Bacterial Growth Inhibition Data, E. coli","[2]; Conc. 0.1, well 5, M9 media",0.4
same,"Broad Spectrum Bacterial Growth Inhibition Data, E. coli","[2]; Conc. 0.2, well 6, M9 media",0.4
same,"Broad Spectrum Bacterial Growth Inhibition Data, E. coli","[2]; Conc. 0.4, well 7, M9 media",0.4
same,"Broad Spectrum Bacterial Growth Inhibition Data, E. coli","[2]; Conc. 0.8, well 8, M9 media",0.5
same,"Broad Spectrum Bacterial Growth Inhibition Data, E. coli","[2]; Conc. 1.6, well 9, M9 media",0.4
same,"Broad Spectrum Bacterial Growth Inhibition Data, E. coli","[2]; Conc. 3.1, well 10, M9 media",0.2
same,"Broad Spectrum Bacterial Growth Inhibition Data, E. coli","[2]; Conc. 6.3, well 11, M9 media",0.2
same,"Broad Spectrum Bacterial Growth Inhibition Data, E. coli","[2]; Conc. 12.5, well 12, M9 media",0.2
same,"Broad Spectrum Bacterial Growth Inhibition Data, P. aeruginosa","[3]; Conc. 0.0, well 4, M9 media",1.1
same,"Broad Spectrum Bacterial Growth Inhibition Data, P. aeruginosa","[3]; Conc. 0.1, well 5, M9 media",1.0
same,"Broad Spectrum Bacterial Growth Inhibition Data, P. aeruginosa","[3]; Conc. 0.2, well 6, M9 media",1.0
same,"Broad Spectrum Bacterial Growth Inhibition Data, P. aeruginosa","[3]; Conc. 0.4, well 7, M9 media",1.0
same,"Broad Spectrum Bacterial Growth Inhibition Data, P. aeruginosa","[3]; Conc. 0.8, well 8, M9 media",1.0
same,"Broad Spectrum Bacterial Growth Inhibition Data, P. aeruginosa","[3]; Conc. 1.6, well 9, M9 media",1.0
same,"Broad Spectrum Bacterial Growth Inhibition Data, P. aeruginosa","[3]; Conc. 3.1, well 10, M9 media",1.0
same,"Broad Spectrum Bacterial Growth Inhibition Data, P. aeruginosa","[3]; Conc. 6.3, well 11, M9 media",0.1
same,"Broad Spectrum Bacterial Growth Inhibition Data, P. aeruginosa","[3]; Conc. 12.5, well 12, M9 media",0.1
same,"Broad Spectrum Bacterial Growth Inhibition Data, B. subtillus","[4]; Conc. 0.0, well 4, M9 media",0.5
same,"Broad Spectrum Bacterial Growth Inhibition Data, B. subtillus","[4]; Conc. 0.1, well 5, M9 media",0.5
same,"Broad Spectrum Bacterial Growth Inhibition Data, B. subtillus","[4]; Conc. 0.2, well 6, M9 media",0.4
same,"Broad Spectrum Bacterial Growth Inhibition Data, B. subtillus","[4]; Conc. 0.4, well 7, M9 media",0.4
same,"Broad Spectrum Bacterial Growth Inhibition Data, B. subtillus","[4]; Conc. 0.8, well 8, M9 media",0.2
same,"Broad Spectrum Bacterial Growth Inhibition Data, B. subtillus","[4]; Conc. 1.6, well 9, M9 media",0.2
same,"Broad Spectrum Bacterial Growth Inhibition Data, B. subtillus","[4]; Conc. 3.1, well 10, M9 media",0.2
same,"Broad Spectrum Bacterial Growth Inhibition Data, B. subtillus","[4]; Conc. 6.3, well 11, M9 media",0.2
same,"Broad Spectrum Bacterial Growth Inhibition Data, B. subtillus","[4]; Conc. 12.5, well 12, M9 media",0.2
same,"Broad Spectrum Bacterial Growth Inhibition Data, Ps. sturtzeri","[5]; Conc. 0.0, well 4, M9 media",0.5
same,"Broad Spectrum Bacterial Growth Inhibition Data, Ps. sturtzeri","[5]; Conc. 0.1, well 5, M9 media",0.5
same,"Broad Spectrum Bacterial Growth Inhibition Data, Ps. sturtzeri","[5]; Conc. 0.2, well 6, M9 media",0.3
same,"Broad Spectrum Bacterial Growth Inhibition Data, Ps. sturtzeri","[5]; Conc. 0.4, well 7, M9 media",0.3
same,"Broad Spectrum Bacterial Growth Inhibition Data, Ps. sturtzeri","[5]; Conc. 0.8, well 8, M9 media",0.2
same,"Broad Spectrum Bacterial Growth Inhibition Data, Ps. sturtzeri","[5]; Conc. 1.6, well 9, M9 media",0.2
same,"Broad Spectrum Bacterial Growth Inhibition Data, Ps. sturtzeri","[5]; Conc. 3.1, well 10, M9 media",0.2
same,"Broad Spectrum Bacterial Growth Inhibition Data, Ps. sturtzeri","[5]; Conc. 6.3, well 11, M9 media",0.2
same,"Broad Spectrum Bacterial Growth Inhibition Data, Ps. sturtzeri","[5]; Conc. 12.5, well 12, M9 media",0.2
same,"Broad Spectrum Bacterial Growth Inhibition Data, S. aureus","[6]; Conc. 0.0, well 4, M9 media",0.6
same,"Broad Spectrum Bacterial Growth Inhibition Data, S. aureus","[6]; Conc. 0.1, well 5, M9 media",0.6
same,"Broad Spectrum Bacterial Growth Inhibition Data, S. aureus","[6]; Conc. 0.2, well 6, M9 media",0.5
same,"Broad Spectrum Bacterial Growth Inhibition Data, S. aureus","[6]; Conc. 0.4, well 7, M9 media",0.5
same,"Broad Spectrum Bacterial Growth Inhibition Data, S. aureus","[6]; Conc. 0.8, well 8, M9 media",0.5
same,"Broad Spectrum Bacterial Growth Inhibition Data, S. aureus","[6]; Conc. 1.6, well 9, M9 media",0.4
same,"Broad Spectrum Bacterial Growth Inhibition Data, S. aureus","[6]; Conc. 3.1, well 10, M9 media",0.2
same,"Broad Spectrum Bacterial Growth Inhibition Data, S. aureus","[6]; Conc. 6.3, well 11, M9 media",0.1
same,"Broad Spectrum Bacterial Growth Inhibition Data, S. aureus","[6]; Conc. 12.5, well 12, M9 media",0.1
same,"Broad Spectrum Bacterial Growth Inhibition Data, S. epidermids","[7]; Conc. 0.0, well 4, M9 media",0.7
same,"Broad Spectrum Bacterial Growth Inhibition Data, S. epidermids","[7]; Conc. 0.1, well 5, M9 media",0.7
same,"Broad Spectrum Bacterial Growth Inhibition Data, S. epidermids","[7]; Conc. 0.2, well 6, M9 media",0.6
same,"Broad Spectrum Bacterial Growth Inhibition Data, S. epidermids","[7]; Conc. 0.4, well 7, M9 media",0.3
same,"Broad Spectrum Bacterial Growth Inhibition Data, S. epidermids","[7]; Conc. 0.8, well 8, M9 media",0.2
same,"Broad Spectrum Bacterial Growth Inhibition Data, S. epidermids","[7]; Conc. 1.6, well 9, M9 media",0.2
same,"Broad Spectrum Bacterial Growth Inhibition Data, S. epidermids","[7]; Conc. 3.1, well 10, M9 media",0.1
same,"Broad Spectrum Bacterial Growth Inhibition Data, S. epidermids","[7]; Conc. 6.3, well 11, M9 media",0.1
same,"Broad Spectrum Bacterial Growth Inhibition Data, S. epidermids","[7]; Conc. 12.5, well 12, M9 media",0.1
same,Absorbance,"[8]; E. coli, well 12, time 0 hrs",0.085
same,Absorbance,"[8]; E. coli, well 12, time 1 hrs",0.095
same,Absorbance,"[8]; E. coli, well 12, time 2 hrs",0.111
same,Absorbance,"[8]; E. coli, well 12, time 3 hrs",0.104
same,Absorbance,"[8]; E. coli, well 12, time 3.75 hrs",0.090
same,Absorbance,"[8]; E. coli, well 12, time 5 hrs",0.094
same,Absorbance,"[8]; E. coli, well 12, time 6.5 hrs",0.090
same,Absorbance,"[8]; E. coli, well 12, time 7.25 hrs",0.089
same,Absorbance,"[8]; E. coli, well 12, time 23 hrs",0.091
same,Concentration dependence of bacterial growth inhibition,"[8]; E. coli, spot inoculated agar plate (FIG. 1B)",concentration-dependent
same,E. coli growth inhibition,[8]; as compared to M9 and other analogs,significantly inhibited
same,Percentage of Surviving CV-1 cells relative to PBS,[9]; 0.1 mM,97%
same,Percentage of Surviving CV-1 cells relative to PBS,[9]; 0.2 mM,94%
same,Percentage of Surviving CV-1 cells relative to PBS,[9]; 0.39 mM,97%
same,Percentage of Surviving CV-1 cells relative to PBS,[9]; 0.78 mM,97%
same,Percentage of Surviving CV-1 cells relative to PBS,[9]; 1.56 mM,98%
same,Percentage of Surviving CV-1 cells relative to PBS,[9]; 3.13 mM,100%
same,Percentage of Surviving CV-1 cells relative to PBS,[9]; 6.25 mM,100%
same,Percentage of Surviving CV-1 cells relative to PBS,[9]; 12.5 mM,101%
same,Percentage of Surviving CV-1 cells relative to PBS,[9]; 25 mM,100%
same,Percentage of Surviving CV-1 cells relative to PBS,[9]; 50 mM,60%
